These results are taken from patent publication US9610365B2, “Anthracenyl-tetralactam macrocycles and their use in detecting a target saccharide” (UNIVERSITY OF BRISTOL, priority 2012, dated 2017).

A short description of series [1]: 1H NMR titration, summary for non-target monosaccharides. The class given is binding. As to conditions: all non-target monosaccharides aside from methyl α-D-glucoside. The protocol: (§1) The binding of receptor compound 3 to carbohydrate substrates, in aqueous solution, was studied initially by ^1H NMR titrations at 298 K. The saccharides used as test substrates are shown in FIG. 7.
(§2) Titrations were performed on a Varian™ 500 MHz spectrometer. Solutions of reducing carbohydrates were prepared in D2O and kept overnight at room temperature before the titration experiments, in order to ensure equilibration of anomers. In a typical titration, aliquots of carbohydrate solution were added to receptor solution (DSS as internal standard) and the ^1H NMR spectra were recorded. Variations in chemical shifts were entered into a specifically written non-linear least squares curve-fitting program implemented within Excel™. Assuming 1:1 stoichiometry, the program calculates Ka and the limiting change in chemical shift Δδ. The assumption is supported by the generally good fits between observed and calculated data.

Series [2] in a line: 1H NMR titration, binding to carbohydrate substrate. As to conditions: for Ka: 1H NMR titration in D2O at 298 K. The protocol:
as §1, §2

Test in series [3]: as above
The protocol:
as §1, §2

Test in series [4]: as above
To be noted: 1H NMR titration in D2O at 298 K. The protocol:
as §1, §2

Test in series [5]: as above
To be noted: 1H NMR titration in D2O at 298 K. The protocol:
as §1, §2
This is another data set of the same source.

Test in series [6]: as above
As to conditions: 1H NMR titration in D2O at 298 K; ~0 = too small for analysis. The protocol:
as §1, §2

Test in series [7]: as above
As to conditions: 1H NMR titration in D2O at 298 K. The protocol: as §1, §2
The source holds these as a separate data set.

Test in series [8]: as above
As to conditions: 1H NMR titration in D2O at 298 K. The protocol:
as §1, §2
This is another data set of the same source.

Test in series [9]: as above
As to conditions: 1H NMR titration in D2O at 298 K; ~0 = too small for analysis. The protocol:
as §1, §2
The source holds these as a separate data set.

A short description of series [10]: Photobleaching under continuous UV irradiation in a fluorescence spectrometer. It counts as physicochemical. To be noted: in 5 hours. The protocol: Under continuous UV irradiation in a fluorescence spectrometer, emission decayed by <10% in 5 hours. In a practical glucose monitoring device this would translate to a long lifetime as the receptor compound would be subjected only to short pulses of light every few seconds.

Series [11] can be described thus: 1H NMR titration, binding to carbohydrate substrate. As to conditions: 1H NMR titration in D2O at 298 K. The protocol:
as §1, §2
This is another data set of the same source.

Test in series [12]: as above
As to conditions: 1H NMR titration in D2O at 298 K. The protocol:
as §1, §2
This is another data set of the same source.

Test in series [13]: as above
To be noted: 1H NMR titration in D2O at 298 K. The protocol:
as §1, §2
This is another data set of the same source.

Series [14] can be described thus: Fluorescence emission properties of the receptor. The class given is physicochemical. The protocol:
Fluorescence titrations were carried out at 298 K on a PerkinElmer™ LS45 spectrometer in PBS (phosphate buffered saline) buffer solution (pH 7.1, 100 mM). The carbohydrate stock solutions were prepared by dissolving the carbohydrates in buffer containing the receptor at the concentration to be used in the titration (thus avoiding dilution of the receptor during the experiment). The solutions were kept overnight at room temperature before the titration experiments, in order to ensure equilibration of anomers. The wavelength to be used for fluorescence excitation was determined by measurement of the UV-visible spectrum of receptor 3 in the presence of carbohydrates. 394 nm was chosen, because at this wavelength the absorption of receptor was almost independent of carbohydrate concentration. In a typical titration, aliquots of carbohydrate-receptor solution were added to receptor solution (2.5 mL) in a quartz cuvette (3 mL, 10 mm pathway). […]
It can be seen that on excitation with UV light at 394 nm, 3 emitted in the blue-violet region, peaking at 423 nm, with a quantum yield of 2.4% (20 μm aqueous solution). […] Binding constants obtained by this method were in good agreement with those measured by NMR titrations (see Table 1). Moreover these fluorescence characteristics are promising for practical glucose sensing, especially when compared to biphenyl-based synthetic lectins. […]

A further series is described as follows: Fluorescence titration. It counts as binding. As to conditions: for Ka: fluorescence titration in phosphate buffer solution (pH 7.1, 0.1 M) at 298 K. The protocol: Fluorescence titrations were carried out at 298 K on a PerkinElmer™ LS45 spectrometer in PBS (phosphate buffered saline) buffer solution (pH 7.1, 100 mM). The carbohydrate stock solutions were prepared by dissolving the carbohydrates in buffer containing the receptor at the concentration to be used in the titration (thus avoiding dilution of the receptor during the experiment). The solutions were kept overnight at room temperature before the titration experiments, in order to ensure equilibration of anomers. The wavelength to be used for fluorescence excitation was determined by measurement of the UV-visible spectrum of receptor 3 in the presence of carbohydrates. 394 nm was chosen, because at this wavelength the absorption of receptor was almost independent of carbohydrate concentration. In a typical titration, aliquots of carbohydrate-receptor solution were added to receptor solution (2.5 mL) in a quartz cuvette (3 mL, 10 mm pathway). The solution was stirred for 2 minutes and left to stand for another 1 minute before the emission spectrum was recorded. Binding constants were calculated using non-linear curve fitting assuming 1:1 binding stoichiometry, employing both Kaleidagraph™ and a customised Excel™ spreadsheet. Errors were estimated at <5%.

Series [15] can be described thus: 1H NMR titration, binding to carbohydrate substrate. To be noted: 1H NMR titration in D2O at 298 K; ~0 = too small for analysis. The protocol: as §1, §2
The source holds these as a separate data set.

Test in series [16]: as above
As to conditions: 1H NMR titration in D2O at 298 K; ~0 = too small for analysis. The protocol:
as §1, §2
The source holds these as a separate data set.

Test in series [17]: as above
To be noted: 1H NMR titration in D2O at 298 K; ~0 = too small for analysis. The protocol:
as §1, §2
The source holds these as a separate data set.

Test in series [18]: as above
To be noted: 1H NMR titration in D2O at 298 K; ~0 = too small for analysis. The protocol: as §1, §2
The source holds these as a separate data set.

Test in series [19]: as above
To be noted: 1H NMR titration in D2O at 298 K. The protocol:
as §1, §2
This is another data set of the same source.

Test in series [20]: as above
As to conditions: 1H NMR titration in D2O at 298 K; ~0 = too small for analysis. The protocol: as §1, §2
This is another data set of the same source.

Test in series [21]: as above
To be noted: 1H NMR titration in D2O at 298 K. The protocol: as §1, §2
The source holds these as a separate data set.

Test in series [22]: as above
To be noted: 1H NMR titration in D2O at 298 K. The protocol: as §1, §2
This is another data set of the same source.

Test in series [23]: as above
To be noted: 1H NMR titration in D2O at 298 K. The protocol: as §1, §2
This is another data set of the same source.

Series [24] is described as follows: Solubility and aggregation in water/D2O (NMR dilution studies). It counts as physicochemical. The protocol:
The compound was dissolved in D2O at concentrations up to ˜4 mM giving clean, if slightly broadened, ^1H NMR spectra. Minor signal movements were observed on dilution to ˜1 mM but no further effect was observed below this concentration, implying that the system is monomeric at 1 mM or less.

The nature of series [25]: Isothermal titration calorimetry (ITC). The class given is binding. As to conditions: ITC titration in water at 298 K. The protocol:
(§3) Experiments were performed on a VP-ITC™ (Microcal, Inc., Northampton, Mass.) at 298 K. Stock solutions of carbohydrates were made up in pure HPLC grade water and allowed to equilibrate overnight. Receptor solutions were made up in pure water. All the solutions were degassed and thermostated using the ThermoVac™ accessory before titration. The sample cell volume was 1.4226 mL. Each titration experiment included 25-35 successive injections.
For orientation: Isothermal titration calorimetry measures the heat released or taken up as one component is titrated into another.

Series [26] can be described thus: 1H NMR titration, binding to carbohydrate substrate. As to conditions: 1H NMR titration in D2O at 298 K. The protocol: as §1, §2
The source holds these as a separate data set.

Series [27] can be described thus: Isothermal titration calorimetry (ITC). The class given is binding. The protocol: as §3
A short description of series [28]: 1H NMR titration, binding to carbohydrate substrate. To be noted: 1H NMR titration in D2O at 298 K. The protocol:
as §1, §2
This is another data set of the same source.

Where [29] appears, read: 1H NMR titration, 1.1 mM receptor, glucose 0 to 200 mM, 298 K.
Setting [30] is: 0.125 mM to 2 mM in D2O at 298 K.

Molecules are shown by their SMILES.

Take `O=C(O)CCOCC(COCCC(=O)O)(COCCC(=O)O)NC(=O)c1cc2cc(c1)C(=O)NCc1c3ccccc3c(c3ccccc13)CNC(=O)c1cc(cc(C(=O)NC(COCCC(=O)O)(COCCC(=O)O)COCCC(=O)O)c1)C(=O)NCc1c3ccccc3c(c3ccccc13)CNC2=O` [Compound 3]: the Ka was not above 1 m^−1 in [1]; 56 M⁻¹ in [2]; approximately 0 M⁻¹ in series [2] (~0 = too small for analysis); approximately 0 M⁻¹ in series [3] (1H NMR titration in D2O at 298 K, ~0 = too small for analysis); 24 M⁻¹ in series [4]; 10 M⁻¹ in [5]. For the same molecule, the Ka in series [6] was approximately 0 M⁻¹; in series [7] it was 1 M⁻¹; in series [8], 87 M⁻¹; in [9] it was approximately 0 M⁻¹; in series [11], 35 M⁻¹; in series [12], 16 M⁻¹. For the same molecule, the Ka is 6 M⁻¹ in series [13]; 58 M⁻¹ in “Fluorescence titration” (binding data at 423 nm); 9 M⁻¹ in the series “Fluorescence titration” (with D -lactose); 121 M⁻¹ in “Fluorescence titration” (with methyl β-D-glucoside 10); approximately 0 M⁻¹ in series [15]; approximately 0 M⁻¹ in series [16]. Moreover, the Ka in series [17] is approximately 0 M⁻¹; in series [18] it was approximately 0 M⁻¹; in [19], 28 M⁻¹; in series [20], approximately 0 M⁻¹; in series [21], 9 M⁻¹; in [22], 96 M⁻¹. The Ka in series [23] turned out to be 1 M⁻¹; in series [25], 101 M⁻¹; in series [26] it was 36 M⁻¹; in [27] (ITC titration in water at 298 K), 55 M⁻¹; in series [28], 1 M⁻¹. Besides, the “association constant Ka from movement of proton E” value in series [2] (setting [29]) was 58 M⁻¹. In addition, in [2] (setting [29]), the “association constant Ka from movement of proton F” value worked out at 54 M⁻¹. Besides, the receptor occupancy in series [2] (310 K, across the physiological range of 2-10 mM glucose) is on record as 6-25%. In addition, the “response when added to receptor” value in [2] (lactate) and in [3] (mannitol) was “Neither produced any response” in each case. Moreover, in [2] (physiological temperature (310 K)), the “affinity measured by NMR titration” value is 33 M⁻¹. Moreover, the “emission decay (photobleaching)” value in series [10] is given as less than 10%. In series [14] (20 μm aqueous solution, excitation 394 nm), the quantum yield is reported as 2.4%. For the same molecule, in series [14] (excitation with UV light at 394 nm), the emission peak is recorded as 423 nm. In addition, the “increase of emission intensity on addition of glucose (factor)” value in “Fluorescence titration” (receptor 18.8 μM, excitation 394 nm) is “up to 2.5”. In [24] (D2O, NMR dilution), the “concentration at which system is monomeric” value is not above 1 mM. The “concentration dissolved in D2O” value in [24] (giving clean 1H NMR spectra) is reported as approximately 4 mM. The TΔS of binding in [27] (ITC, 298 K, water) was -1.4 kcal/mol. In series [27] (ITC, 298 K, water), this molecule returned a ΔH of binding of -3.8 kcal/mol.

Regarding `O=C([O-])CCOCC(COCCC(=O)[O-])(COCCC(=O)[O-])NC(=O)c1cc2cc(c1)C(=O)NCc1c3ccccc3c(c3ccccc13)CNC(=O)c1cc(cc(C(=O)NC(COCCC(=O)[O-])(COCCC(=O)[O-])COCCC(=O)[O-])c1)C(=O)NCc1ccc(cc1)CNC2=O.[Na+].[Na+].[Na+].[Na+].[Na+].[Na+]` [Compound 9], the Ka result in [2] and in [21] was “too small to measure” in each case.

For `O=C([O-])CCC(CCC(=O)[O-])(CCC(=O)[O-])NC(=O)CCC(CCC(=O)NC(CCC(=O)[O-])(CCC(=O)[O-])CCC(=O)[O-])(CCC(=O)NC(CCC(=O)[O-])(CCC(=O)[O-])CCC(=O)[O-])NC(=O)c1cc2cc(c1)C(=O)NCc1c3ccccc3c(c3ccccc13)CNC(=O)c1cc(cc(C(=O)NC(CCC(=O)NC(CCC(=O)[O-])(CCC(=O)[O-])CCC(=O)[O-])(CCC(=O)NC(CCC(=O)[O-])(CCC(=O)[O-])CCC(=O)[O-])CCC(=O)NC(CCC(=O)[O-])(CCC(=O)[O-])CCC(=O)[O-])c1)C(=O)NCc1c3ccccc3c(c3ccccc13)CNC2=O.[Na+].[Na+].[Na+].[Na+].[Na+].[Na+].[Na+].[Na+].[Na+].[Na+].[Na+].[Na+].[Na+].[Na+].[Na+].[Na+].[Na+].[Na+]` [Compound 13], in [2], the Ka was found to be 89 M⁻¹. Further, in the series “Fluorescence titration” (em 423 nm, ex 395 nm, 18.8 μM, phosphate buffer pH 7.1), the “increase in fluorescence emission upon binding with D-glucose” value was “approximately three-fold”. This molecule gave a Ka in the series “Fluorescence titration” (binding data at 423 nm) of 87 M⁻¹. For the same molecule, in series [24] (setting [30]), the “aggregation during NMR dilution studies” value is “no indication of aggregation” and the solubility in water result is listed as “good solubility in water”.
